Measured values: patent US20220387430A1, “USE OF COMPOUND IN PREVENTING OR TREATING GRAFT VERSUS HOST DISEASE” (SHENZHEN CHIPSCREEN BIOSCIENCES, CO., LTD., priority 2019, published 2022)

Tested on: GVHD model mice (BALB/c receptor mice, C57BL/6 donor mice)
Assay: GVHD model induced by mouse allogeneic bone marrow transplantation
Type: in vivo
Conditions: for survival rate at 61 days: 61 days after allogeneic bone marrow transplantation
Excerpt: This study evaluates a pharmacodynamics effect of a test drug CS12192 in a GVHD model induced by mouse allogeneic bone marrow transplantation. In the GVHD model, 6-8 week old of two types of C57BL/6 (H-2b) and BALB/c (H-2d) male mice are used as donor and receptor animals respectively. Wherein, C57BL/6 mice are the donor mice, and BALB/c mice are the receptor mice.
The receptor mice are sent to an irradiation center to receive 8.5 Gry systemic irradiation on the day before transplantation, and after the irradiation, the mice are randomly divided into groups according to the body weights of the mice. On day 0, after 3-5% isoflurane pre-anesthesia, the donor mice are killed by cervical dislocation, and spleens are excised in a sterile environment, ground, and filtered by a sterile filter. Then red blood cells are digested with ammonium chloride buffer solution, lymphocytes are washed twice with RPMI 1640 culture solution, and finally resuspended in RPMI 1640 culture solution containing 10% fetal bovine serum, to prepare a lymphocyte suspension.
The receptor mice are divided into 6 groups, and each group includes 10 mice.

| Compound | survival rate at 61 days (CS12192 40 mg/kg twice a day, p<0.0005 relative to the vehicle control) [%] | survival rate at 61 days (CS12192 80 mg/kg twice a day, p<0.0001 relative to the vehicle control) [%] | weight gains of the mice (CS12192 two-dose groups (40 and 80 mg/kg twice a day) versus positive drug prednisolone group and solvent control group (FIG. 2)) | survival rate at 61 days (prednisolone 20 mg/kg once a day, p<0.01 relative to the vehicle control) [%] |
| --- | --- | --- | --- | --- |
| C=CC(=O)N(C)c1cc(Nc2ncc(Cl)c(NCCCNC(=O)c3ccc(C#N)cc3)n2)ccc1F [CS12192] | 89 | 100 | significantly better than that of the positive drug prednisolone group | – |
| C[C@]12C=CC(=O)C=C1CC[C@@H]1[C@@H]2[C@@H](O)C[C@@]2(C)[C@H]1CC[C@]2(O)C(=O)CO [prednisolone, reference compound] | – | – | – | 67 |
